Assay results from patent US20200246364A1, “MEDICAL APPLICATION OF COMPOSITION OF FRUCTOSE-1,6-BISPHOSPHATE AND BLOOD CONCENTRATION STABILIZER THEREOF” (ZHEJIANG UNIVERSITY, priority 2017, published 2020).
Marks after values point to notes of the source that are not given here.

Columns and labels:
[1] = tested on: Normal human astrocytes (HA); test: Regulation of metabolism in normal human astrocytes; type: cell-based; details: vs control group
Method: Normal human astrocytes (HA) were incubated in culture media containing different concentrations of trisodium fructose-1,6-bisphosphate salt (0 mM, 0.25 mM, 0.5 mM, 1 mM), and lactic acid level in the culture media and intracellular ATP level were measured after 12 h and 24 h.
The normal human astrocytes (HA) were incubated in culture media containing different concentrations of trisodium fructose-1,6-bisphosphate salt (0 mM, 0.25 mM, 0.5 mM, 1 mM, 2 mM, 2.5 mM), and after 36 h, reduced glutathione GSH level and a ratio of NADPH/NADP+ in the group of […] trisodium fructose-1,6-bisphosphate in the cells were measured. […] (FIG. 1d, e)

[2] = tested on: glioma cells U87-MG; test: Lactic acid released by glioma cells (glycolysis); type: cell-based, human
Method: (§1) Human glioma cell strains (U87-MG, KNS-89, SHG-44) were respectively incubated in culture media containing 0.8 mM of trisodium fructose-1,6-bisphosphate salt, and 1.6 mM of trisodium fructose-1,6-bisphosphate salt, and 1.6 mM of 2-deoxyglucose, and the contents of lactic acid as the final glycolytic product released by the cells in the culture media were measured after 12 h, 24 h, 36 h, and 48 h. […] Human glioma cell strain (U87-MG) was incubated in the culture medium containing 0.8 mM of trisodium fructose-1,6-bisphosphate salt for 1 h, 3 h, 6 h, 12 h, 24 h, 36 h, and 48 h, and level changes of key metabolic enzymes in the glycolytic pathway of cells were measured by Western Blot at the respective time points.

[3] = tested on: U87-MG; test: Western Blot of key glycolytic enzymes; type: cell-based, human; details: 0.8 mM, 1 h to 48 h
Method: as §1

[4] = tested on: KNS-89; test: Mitochondrial oxidative phosphorylation in glioma cells (ATP/ADP, NADH/NAD+, ATP); type: cell-based, human
[5] = tested on: U87MG; test: Tricarboxylic acid circulation intermediates in cytoplasm and mitochondria (LC-MS/MS); type: cell-based, human; details: 1.6 mM, 36 h
Method: Human glioma cell strain (U87MG) was cultured in a medium containing 1.6 mM of trisodium fructose-1,6-bisphosphate for 36 h, and then cytoplasm and mitochondria were separated. Levels of tricarboxylic acid circulation intermediates in cytoplasm and mitochondria were respectively measured by LC-MS/MS.

[6] = tested on: U251; test: Reactive oxygen species and mitochondrial membrane potential; type: cell-based, human; details: U251, 0.8 mM
[7] = tested on: chronic epilepsy in rats; details: administered intragastrically; cited from earlier work
[8] = tested on: melanoma B16 cell; test: Cell viability, Sulforhodamine B (SRB) staining; details: Mus musculus, B16, 72 h
Method: Mouse melanoma B16 cells, which had been incubated for 24 hours, were incubated in a medium containing 0.8 mM of trisodium fructose-1,6-bisphosphate, a medium containing 20 μM of sitagliptin, and a medium containing 0.8 mM of trisodium fructose-1,6-bisphosphate and 20 μM of sitagliptin for 72 h. A control group (Con) was not treated with the agent. Cell viability was determined by Sulforhodamine B (SRB) staining analysis method.

In the case of `O=C(COP(=O)(O)O)[C@@H](O)[C@H](O)[C@H](O)COP(=O)(O)O` [FBP, fructose-1,6-bisphosphate], the “intracellular protein level of Cyto C (Western Blot)” value ([1]; 0.8 mM, 36 h) is reported as “significantly increased”, the “intracellular protein levels of PFKFB3 and LDH5 (Western Blot)” value ([1]; 0.8 mM, 36 h) is reported as “significantly reduced” and the “ratio of NADPH/NADP+” value ([1]; 1.6 mM, 36 h) is reported as “significantly increased”. For the same compound, the “lactic acid level in the culture media” value ([1]; 0.25, 0.5, 1 mM, 12 h and 24 h) was “decreased significantly”, the “intracellular ATP level” value ([1]; 0.25, 0.5, 1 mM, 24 h) was “increased significantly” and the “reduced glutathione GSH level” value ([1]; 0.25-2.5 mM, 36 h) was “significantly increased”. For the same compound, the “Relative levels of lactic acid (compared with the control group)” value (from here on “Relative levels of lactic acid”) ([2]; 0.8 mM, 12 h) was 0.96 ± 0.13, the “Relative levels of lactic acid” value ([2]; 0.8 mM, 24 h) was 0.73 ± 0.05 and the “Relative levels of lactic acid” value ([2]; 0.8 mM, 36 h) was 0.56 ± 0.18. For the same compound, the “Relative levels of lactic acid” value ([2]; 1.6 mM, 12 h) was 1.09 ± 0.11, the “Relative levels of lactic acid” value ([2]; 1.6 mM, 24 h) was 0.71 ± 0.05 and the “Relative levels of lactic acid” value ([2]; 1.6 mM, 36 h) was 0.39 ± 0.03. For the same compound, the “levels of HK2, PFKFB3, PKM2 and LDH5 (Western Blot)” value [3] was “quickly and continuously down-regulated”, the “ratio of ATP/ADP (CON = 1.00)” value ([4]; KNS-89, 0.8 mM or 1.6 mM, 36 h) was 2.91 ± 0.03 and the “ratio of NADH/NAD+ (CON = 1.00)” value ([4]; KNS-89, 0.8 mM or 1.6 mM, 36 h) was 9.44 ± 0.75. For the same compound, the ATP level ([4]; KNS-89, 36 h, vs control group) was “significantly increased”, the “Relative level of Ac-CoA (compared with the control group)” value ([5]; cytoplasm) was 0.02 ± 0.01 and the “Relative level of Cit (compared with the control group)” value ([5]; cytoplasm) was 0.28 ± 0.01. For the same compound, the “Relative level of OAA (compared with the control group)” value ([5]; cytoplasm) was 0.19 ± 0.01, the “Relative level of α-KG (compared with the control group)” value ([5]; cytoplasm) was 1.20 ± 0.12*^ and the “Relative level of Ac-CoA (compared with the control group)” value ([5]; mitochondria) was 1.38 ± 0.11. For the same compound, the “Relative level of Cit (compared with the control group)” value ([5]; mitochondria) was 1.02 ± 0.06, the “Relative level of OAA (compared with the control group)” value ([5]; mitochondria) was 2.02 ± 0.13 and the “Relative level of α-KG (compared with the control group)” value ([5]; mitochondria) was 2.42 ± 0.04. For the same compound, the “Relative level of mitochondrial membrane potential (compared with the control group)” value ([6]; 12 h) was 1.08 ± 0.03, the “Relative level of reactive oxygen species (compared with the control group)” value ([6]; 12 h) was 1.20 ± 0.04 and the “Relative level of mitochondrial membrane potential (compared with the control group)” value ([6]; 24 h) was 1.18 ± 0.01. The “Relative level of reactive oxygen species (compared with the control group)” value ([6]; 24 h) was 1.19 ± 0.03, the “Relative level of mitochondrial membrane potential (compared with the control group)” value ([6]; 48 h) was 0.6 ± 0.06 and the “Relative level of reactive oxygen species (compared with the control group)” value ([6]; 48 h) was 1.42 ± 0.03. For the same compound, the “Relative level of mitochondrial membrane potential (compared with the control group)” value ([6]; 72 h) was 0.4 ± 0.07, the “Relative level of reactive oxygen species (compared with the control group)” value ([6]; 72 h) was 1.82 ± 0.03 and the “long-term effective dose for chronic epilepsy” value [7] was 100 to 200 mg/kg/day. The viability at 800 µM ([8]; read-out: cell viability (Con = 100)) was 77.7 ± 7.29% and the cytotoxicity at 800 µM ([8]; read-out: cell viability inhibited) was 22%.
